From patent US12297434B1, “Biomarker for predicting drug resistance of bruton's tyrosine kinase inhibitors and application thereof” (Beijing Friendship Hospital, Capital Medical University, priority 2024, dated 2025)

Experiments:
Assay type in all cases: cell-based, Human
SUDHL2 cells = assay: CCK8 cell viability, zebutinib on SUDHL2; conditions: parental ABC-DLBCL cell line SUDHL2, CCK8 method; read-out: half maximal inhibitory concentration (IC50)
Excerpt: (§1) Human ABC-DLBCL cell lines (SUDHL2, U2932 and OCI-LY10) are purchased from American Type Culture Collection (ATCC) cell bank. The BTK inhibitor-resistant ABC-DLBCL-R cell line is constructed according to the drug concentration gradient increment method, and the BTK inhibitor used in the present disclosure is zebutinib. […] All the patients were diagnosed according to the 2016 revision of the WHO classification of lymphoid neoplasms. Before the study, written informed consent was obtained from each patient and healthy volunteer.
(§2) The drug concentration gradient is used to induce zebutinib resistance to BTK inhibitor in ABC-DLBCL cell lines (SUDHL2, U2932 and OCI-LY10). Tumor cells in the logarithmic growth phase are taken, and zebutinib at a starting concentration of 2 micromoles per liter (μmol/L) (about 1/10 of the IC50 of the parental cell line) is added to act for 24 hours (h). […]
(§3) Cell activity is measured using a cell counting kit-8 (CCK-8, Dojindo, Japan). […] The absorbance at 450 nm is measured by ELX808 microplate spectrophotometer (BioTekInstruments, Winooski, VT, USA). Colony formation experiment: cells are inoculated into a 6-well plate with 500 cells per well, three copies in one group, and cultured for 10-14 days to form colonies, followed by […] in formaldehyde and staining with crystal violet, and the visible colonies are counted. […]

[1] = tested on: SUDHL2-R cells (zebutinib-resistant ABC-DLBCL cell line); assay: CCK8 cell viability, zebutinib on SUDHL2-R
Excerpt: as §1, §2, §3

U2932 cells = assay: CCK8 cell viability, zebutinib on U2932; conditions: parental ABC-DLBCL cell line U2932, CCK8 method; read-out: half maximal inhibitory concentration (IC50)
Excerpt: as §1, §2, §3

[2] = tested on: U2932-R cells (zebutinib-resistant ABC-DLBCL cell line); assay: CCK8 cell viability, zebutinib on U2932-R
Excerpt: as §1, §2, §3

OCI-LY10 cells = assay: CCK8 cell viability, zebutinib on OCI-LY10; conditions: parental ABC-DLBCL cell line OCI-LY10, CCK8 method; read-out: half maximal inhibitory concentration (IC50)
Excerpt: as §1, §2, §3

[3] = tested on: OCI-LY10-R cells (zebutinib-resistant ABC-DLBCL cell line); assay: CCK8 cell viability, zebutinib on OCI-LY10-R
Excerpt: as §1, §2, §3

With `C=CC(=O)N1CCC([C@@H]2CCNc3c(C(N)=O)c(-c4ccc(Oc5ccccc5)cc4)nn32)CC1` [zebutinib] the IC50 (SUDHL2 cells) was 17.1 µM, the “resistance index (RI)” value ([1]; RI=IC50 of drug-resistant cell line/IC50 of parental cell line, SUDHL2-R vs SUDHL2) was 5.28 and the IC50 ([1]; drug-resistant cell line SUDHL2-R, CCK8 method, read-out: half maximal inhibitory concentration (IC50)) was 90.3 µM. The IC50 (U2932 cells) was 28 µM, the “resistance index (RI)” value ([2]; RI=IC50 of drug-resistant cell line/IC50 of parental cell line, U2932-R vs U2932) was 5.14 and the IC50 ([2]; drug-resistant cell line U2932-R, CCK8 method, read-out: half maximal inhibitory concentration (IC50)) was 144 µM. The IC50 (OCI-LY10 cells) was 22.5 µM, the “resistance index (RI)” value ([3]; RI=IC50 of drug-resistant cell line/IC50 of parental cell line, OCI-LY10-R vs OCI-LY10) was 5.23 and the IC50 ([3]; drug-resistant cell line OCI-LY10-R, CCK8 method, read-out: half maximal inhibitory concentration (IC50)) was 118 µM.
